Assay results taken from US11124540B2, “Polypeptides for the treatment of diseases” (Neopep Pharma GmbH & Co., KG, priority 2017, dated 2021).

Tested on: Pancreas carcinoma cells
Assay: Cancer cell invasion assay on humanized rats with implanted pancreas carcinoma cells
Type: in vivo
Conditions: for Tumor response, 2 w after end of therapy: 2 weeks after end of therapy; for Tumor response, 1 w of therapy: after 1 week of therapy; for Tumor response, 2 w of therapy: after 2 weeks of therapy
Method: The cancer cell invasion assay was performed on humanized rats (Eyol, E. et al., Oncology Reports, 28: 2177-2187, 2012). Pancreas carcinoma cells were implanted. The successful implant was observed by luminescent imaging as well as by an increase in CXCR4 expression.
After a successful implant of carcinoma cells, the rats were treated with a peptide according to Seq ID No. 1 and Seq. ID No. 9 respectively. The results after 1 week of therapy (1 w of therapy), after 2 weeks of therapy (2 w of therapy) and 2 weeks after end of therapy are depicted in the below tables.

Sequence	Tumor response, 2 w after end of therapy (amount of peptide 35 mg)	Tumor response, 2 w after end of therapy (amount of peptide 70 mg)	Tumor response, 1 w of therapy (amount of peptide 70 mg)	Tumor response, 2 w of therapy (amount of peptide 7 mg)	Tumor response, 2 w after end of therapy (amount of peptide 10 mg)	Tumor response, 1 w of therapy (amount of peptide 10 mg)	Tumor response, 2 w of therapy (amount of peptide 10 mg)	Tumor response, 2 w after end of therapy (amount of peptide 20 mg)	Tumor response, 1 w of therapy (amount of peptide 20 mg)	Tumor response, 2 w of therapy (amount of peptide 70 mg)
ILRWSRKMPQFS (human) [Seq ID No. 9, Ile Leu Arg Trp Ser Arg Lys Met Pro Gln Phe Ser]	Tumor growth	Tumor growth	Tumor growth							
IVRWSKKVPQVS (human) [Seq ID No. 1, Ile Val Arg Trp Ser Lys Lys Val Pro Gln Val Ser]		Complete Remission	No tumor growth	No tumor growth	Tumor growth	No tumor growth	Tumor growth	Complete Remission	No tumor growth	Remission
